# In US20220017863A1, “SIRT2-ABLATED CHIMERIC T CELLS” (H. Lee Moffitt Cancer Center and Research Institute, Inc., priority 2019, published 2022):
# Assays:
# [1] = system: Pmel CD8+ T cells co-cultured with B16F10 target cells; assay: LDH release cytotoxicity assay of Pmel CD8+ T cells on B16F10 targets; assay type: cell-based, mouse; settings: gp100-stimulated Sirt2KO (Sirt2−/−) Pmel T cells on B16F10 targets, 10 mM 2-DG
# Method: Evaluation of functional cytotoxic activity was performed using Pierce™ LDH Cytotoxicity Assay Kit (ThermoFisher Scientific) according to the manufacturer's protocol. B16F10 cells were used as targets. Mouse CD3^+ TILs isolated from subcutaneous B16F10 tumor nodules and CD8^+ enriched T cells from gp100-stimulated Pmel splenocytes were used as effector cells. Briefly, target B16F10 tumor cells were co-cultured with effector cells in 96-well round-bottom microplates at the indicated effector:target ratios. After 6 hours, the percentage of specific LDH release was calculated according to the following formula: % cell lysis=(experimental value effector cells spontaneous release target cells spontaneous release)×100/(target cells maximum release target cells spontaneous release), where “experimental” corresponds to the experimental signal value, “effector spontaneous” to spontaneous release of LDH from effector cells alone, “target spontaneous” to spontaneous release of LDH from target cells alone and “maximum release” to the maximum release of LDH from target cells in medium containing 1% Triton X-100.
# Evaluation of functional cytotoxic activity was performed using Pierce™ LDH Cytotoxicity Assay Kit (Thermo Fisher Scientific) according to the manufacturer's protocol. […]
# [2] = system: CD3+ TILs from B16F10 tumor nodules; assay: IFN-γ ELISPOT on mouse CD3+ TILs re-challenged with irradiated B16F10 cells; assay type: cell-based; settings: CD3+ TILs from subcutaneous B16F10 nodules of Sirt2KO versus WT mice
# Method: Lymphocytes from subcutaneous tumors were isolated by dicing the tissues and enzymatic digestion in PBS containing collagenase type 4 (2 mg/ml, Worthington Biochemical) and DNase I (0.25 mg/ml, Sigma) for 45 min with occasional shaking at 37° C. Cell suspensions were then twice filtered through 100 μm and 40 μm cell strainers (ThermoFisher Scientific) to single-cell suspension followed by PBS wash and red blood cell lysis using RBC Lysis Buffer (Biolegend). TILs were finally isolated by density gradient centrifugation using Percoll (GE Healthcare) and further purified using CD3c MicroBeads Kit™ (Miltenyi Biotec) according to the manufacturer's instructions. […]
# (§1) The number of IFN-γ producing cells was evaluated in an ELISPOT assay. […] After washing steps and biotinylated anti-IFN-γ antibody (R4-6A2, ThermoFisher Scientific)+Streptavidin-HRP (BD Bioscience) labeling, spots were detected using AEC Substrate Kit (BD Biosciences) and counted using an AID ELISPOT Reader System (Autoimmun Diagnostika GmbH). […]
# (§2) The number of IFN-γ producing cells was evaluated in an ELISPOT assay. […] After washing steps and successive biotinylated anti-IFN-γ antibody (R4-6A2, Mabtech, Inc.) and Streptavidin-HRP (BD Bioscience) labeling, spots were detected using AEC Substrate Kit (BD Biosciences) and counted using an AID ELISPOT Reader System (Autoimmun Diagnostika GmbH).
# Pmel T cells = assay: IFN-γ ELISPOT on gp100-stimulated Pmel T cells; assay type: cell-based, mouse; settings: gp100-stimulated Sirt2KO (Sirt2−/−) Pmel T cells
# Method: Spleens and/or Lymph nodes (LN) were collected from WT, Sirt2KO, Pmel/WT, Pmel/Sirt2KO mice and processed into single-cell suspensions. CD3^+, CD4^+ and CD8^+ T cells were negatively enriched using Mouse Pan T cell, CD4^+ T cell and CD8^+ T cell isolation Kits™ respectively according to the manufacturers' instructions. The purity of the isolated cells was confirmed by flow cytometry (>95%). Purified T cells were cultured in completed RPMI 1640 medium (ThermoFisher Scientific) supplemented with 10% (vol/vol) Fetal bovine serum (FBS, Biowest) and 1% (vol/vol) penicillin/streptomycin (P/S, Thomas Scientific Inc). […]
# as §1, §2
# SIRT2 = molecular target: T1, SIRT2 (Homo sapiens, UniProt Q8IXJ6); settings: cited from earlier work
# T1 sequence (Q8IXJ6 1-389): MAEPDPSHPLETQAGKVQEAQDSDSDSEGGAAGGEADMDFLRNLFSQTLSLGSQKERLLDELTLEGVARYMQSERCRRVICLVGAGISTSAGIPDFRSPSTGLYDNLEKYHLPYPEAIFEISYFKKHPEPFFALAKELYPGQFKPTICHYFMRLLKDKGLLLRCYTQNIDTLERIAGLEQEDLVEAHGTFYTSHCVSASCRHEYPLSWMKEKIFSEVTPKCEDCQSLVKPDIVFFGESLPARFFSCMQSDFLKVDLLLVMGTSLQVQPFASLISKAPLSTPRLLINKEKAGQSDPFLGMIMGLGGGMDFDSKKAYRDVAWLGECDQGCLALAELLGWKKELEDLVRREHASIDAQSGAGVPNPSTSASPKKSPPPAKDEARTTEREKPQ
# SIRT3 = molecular target: T2, SIRT3 (Homo sapiens, UniProt Q9NTG7); settings: cited from earlier work
# T2 sequence (Q9NTG7 1-399): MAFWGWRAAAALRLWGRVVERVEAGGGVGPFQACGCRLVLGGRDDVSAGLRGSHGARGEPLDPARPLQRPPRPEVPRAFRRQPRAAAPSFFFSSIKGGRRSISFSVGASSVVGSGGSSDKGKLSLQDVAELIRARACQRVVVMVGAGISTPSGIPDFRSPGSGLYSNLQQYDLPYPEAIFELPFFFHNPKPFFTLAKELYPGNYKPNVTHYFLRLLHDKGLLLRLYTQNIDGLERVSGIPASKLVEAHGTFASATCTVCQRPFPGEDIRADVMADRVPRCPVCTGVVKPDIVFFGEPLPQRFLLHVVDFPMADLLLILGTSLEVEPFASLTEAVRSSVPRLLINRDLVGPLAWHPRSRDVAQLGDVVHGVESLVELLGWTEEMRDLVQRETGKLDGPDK
# SIRT1 = molecular target: T3, SIRT1 (Homo sapiens, UniProt Q96EB6); settings: cited from earlier work
# T3 sequence (Q96EB6 1-747): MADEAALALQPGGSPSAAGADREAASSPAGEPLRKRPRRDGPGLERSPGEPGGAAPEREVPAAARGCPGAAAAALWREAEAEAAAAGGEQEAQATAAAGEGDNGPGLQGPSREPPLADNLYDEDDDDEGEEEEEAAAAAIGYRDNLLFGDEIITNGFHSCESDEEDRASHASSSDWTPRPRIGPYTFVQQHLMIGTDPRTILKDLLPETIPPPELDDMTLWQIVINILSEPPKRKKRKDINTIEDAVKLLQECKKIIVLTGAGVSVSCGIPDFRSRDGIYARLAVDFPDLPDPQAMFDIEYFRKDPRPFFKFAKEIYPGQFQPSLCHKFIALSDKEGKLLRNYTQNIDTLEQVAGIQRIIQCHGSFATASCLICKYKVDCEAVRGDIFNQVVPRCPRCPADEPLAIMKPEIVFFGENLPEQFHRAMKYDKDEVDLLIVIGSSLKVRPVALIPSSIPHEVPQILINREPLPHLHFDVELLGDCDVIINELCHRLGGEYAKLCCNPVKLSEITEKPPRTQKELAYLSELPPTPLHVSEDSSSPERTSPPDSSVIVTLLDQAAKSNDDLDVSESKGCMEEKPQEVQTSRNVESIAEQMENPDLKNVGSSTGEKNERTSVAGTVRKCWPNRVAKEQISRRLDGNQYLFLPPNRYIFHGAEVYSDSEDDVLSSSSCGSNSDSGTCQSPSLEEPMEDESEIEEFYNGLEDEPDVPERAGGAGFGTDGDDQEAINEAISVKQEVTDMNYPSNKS
smiles,measurement,setting,value
"O=CC[C@@H](O)[C@H](O)[C@H](O)CO [2-DG, 2-deoxyglucose]",cytotoxicity,[1],profoundly suppressed
same,IFN-γ release,[2],suppressed
same,IFN-γ release,Pmel T cells,profoundly suppressed
CCOC(=O)c1ccc(NC(=O)c2ccc3c(c2)C2C4CCC(C4)C2C(c2ccccc2)N3)cc1 (stereo not drawn) [AEM2],IC50,SIRT2,3.8 µM
O=C(Nc1cccc([N+](=O)[O-])c1)c1cccc(S(=O)(=O)N2CCCCCC2)c1 [AK-1],IC50,SIRT3,> 50 µM
same,IC50,SIRT1,> 50 µM
